In patent US20140363384A1, “COMBINATION THERAPY FOR COPD” (CHIESI FARMACEUTICI S.p.A., priority 2009, published 2014):

Legend:
[1] = Analysis of impurities/degradation products by HPLC/UV VIS; settings: for Total impurities % Vs active ingredient: stored 3 months at 25° C./60% relative humidity
[2] = Stability of single, double and triple combination aerosol solution formulations: residual content of active ingredient in the can; type: physicochemical; settings: for Residual % amount ± standard deviation: stored 3 months at 25° C./60% relative humidity, versus amount at time 0
[3] = triple combination FF+GLY+BDP, versus initial amount of the active ingredient
[4] = triple combination FF+GLY+BDP aerosol solution
[5] = triple combination, +5° C. to +40° C./75% RH, 1, 2 and 3 months

Residual % amount ± standard deviation ([2]; double combination FF + BDP) [%]	Structure (SMILES)	Total impurities % Vs active ingredient ([1]; double combination FF + BDP) [%]	Total impurities % Vs active ingredient [1, 3] [%]	Residual % amount ± standard deviation [2, 4] [%]	can content versus time and temperature of storage [2, 5]	Total impurities % Vs active ingredient ([1]; double combination FF + Gly) [%]	level of degradation products (HPLC/UV) ([1]; formulations comprising both formoterol and GLY)	Residual % amount ± standard deviation ([2]; double combination FF + Gly) [%]	can content versus time and temperature of storage ([2]; double combination FF+GLY, all tested storage conditions)	can content versus time and temperature of storage ([2]; single agent GLY formulation in the presence of 1M HCl)	can content versus time and temperature of storage ([2]; single agent GLY formulation, acid omitted)
98.9 ± 0.6	CCC(=O)OCC(=O)[C@@]1(OC(=O)CC)[C@@H](C)C[C@H]2[C@@H]3CCC4=CC(=O)C=C[C@]4(C)[C@@]3(Cl)[C@@H](O)C[C@@]21C [BDP, beclometasone dipropionate]	0.20	0.21	94.5 ± 0.3	not significantly affected by time and temperature						
	COc1ccc(C[C@@H](C)NC[C@H](O)c2ccc(O)c(NC=O)c2)cc1.COc1ccc(C[C@@H](C)NC[C@H](O)c2ccc(O)c(NC=O)c2)cc1.O=C(O)/C=C/C(=O)O [FF, formoterol fumarate]	0.80	1.1			1.3	high levels of degradation products				
	C[N+]1(C)CCC(OC(=O)C(O)(c2ccccc2)C2CCCC2)C1.[Cl-] (stereo not drawn) [Gly, 3-[(cyclopentylhydroxyphenyl-acetyl)oxy]-1,1-dimethylpyrrolidinium chloride]			96.4 ± 1.3	not significantly affected by time and temperature			96.0 ± 0.1	remains stable under all of the tested conditions	maintain a constant content	highly dependent on time and temperature of storage
